Results on ten compounds are retold here after article PMC5517026, “Crystal structure and functional characterization of an isoaspartyl dipeptidase (CpsIadA) from Colwellia psychrerythraea strain 34H” (PLoS ONE, 2017).

The target of assay [1] is isoaspartyl dipeptidase from Colwellia psychrerythraea strain 34H (CpsIadA), wild type (Colwellia psychrerythraea strain 34H) (UniProt Q484B6). In words: AUC; sedimentation velocity, 20°C, 0.5 mg/mL CpsIadA, 25 mM Tris-HCl pH 8.0, 200 mM NaCl, 5 mM MgCl2, 2 mM dithiothreitol, 45,000 rpm, SEDFIT; self-association (octamer).
For assay [2] the target is unchanged. In words: SEC; analytical size-exclusion chromatography; conditions not given; self-association (octamer). For orientation: SEC sorts molecules by how far they enter the pores of the column.
The target is the same in assay [3]. The assay is described as follows: crystal structure; ligand-free wild type CpsIadA, 1.85 Å, space group P4212, two monomers in the asymmetric unit; 0.1 M Bis-Tris propane pH 7.0, 1.4 M sodium malonate, 293 K.
In assay [4] the target is CpsIadA E80Q mutant (Colwellia psychrerythraea strain 34H) (UniProt Q484B6). The assay is described as follows: crystal structure; CpsIadA E80Q mutant with 5 mM β-aspartyl lysine, 2.33 Å, space group P4212, two monomers in the asymmetric unit; 0.1 M Bis-Tris propane pH 7.0, 1 M ammonium citrate tribasic pH 7.0, 293 K.
For assay [5], the target named is T1, CpsIadA (Colwellia psychrerythraea, UniProt Q484B6).
T1 construct: gene iadA; Ni-NTA and gel filtration; homo-octamer (314 kDa by AUC), two Zn ions per active site
T1 sequence (Q484B6 entry or part of it): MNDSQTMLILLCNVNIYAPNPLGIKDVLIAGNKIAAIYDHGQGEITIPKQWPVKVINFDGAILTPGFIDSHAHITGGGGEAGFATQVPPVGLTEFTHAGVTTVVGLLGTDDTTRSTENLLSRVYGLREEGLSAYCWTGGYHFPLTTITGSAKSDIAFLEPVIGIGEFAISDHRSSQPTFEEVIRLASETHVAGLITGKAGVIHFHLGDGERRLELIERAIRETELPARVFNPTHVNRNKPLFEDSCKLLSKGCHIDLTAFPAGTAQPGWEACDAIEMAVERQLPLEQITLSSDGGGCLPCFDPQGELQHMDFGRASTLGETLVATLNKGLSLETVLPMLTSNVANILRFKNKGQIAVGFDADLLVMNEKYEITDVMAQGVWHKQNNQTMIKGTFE
In words: coupled spectrophotometric assay (aspartate aminotransferase/malate dehydrogenase, NADH at […] nm). The assay is classed as biochemical. Conditions: 100 mM HEPES pH 8.0, 100 mM KCl, 30°C.

Assay [6] deals with T2, CpsIadA (Colwellia psychrerythraea, UniProt Q484B6, E80Q, form not given).
T2 construct: gene iadA; Ni-NTA and gel filtration; homo-octamer (314 kDa by AUC), two Zn ions per active site
T2 sequence (Q484B6 entry or part of it E80Q, form open): as the sequence (Q484B6 entry or part of it) above, with E80Q counted along it
The assay is described as follows: X-ray crystal structure of the complex ([…] Å). It is filed as binding. The note with it: active site, two Zn ions; 5 mM ligand added before crystallization; catalytically inactive mutant.

Assay [7] has as its target T1, CpsIadA. In words: coupled assay with L-alanine dehydrogenase/diaphorase, INT reduction at […] nm. It is filed as biochemical. The note with it: 100 mM HEPES pH 8.0, 1.5 mM INT, 1.5 mM NAD+, 30°C.

Where a SMILES comes first, the peptide text is derived from it.

Broadly, the stoichiometry N is a count of units in the complex or per binding partner. Regarding “isoaspartyl dipeptidase from Colwellia psychrerythraea strain 34H (CpsIadA), wild type (from UniProt Q484B6 1-395) (enzyme)”, the stoichiometry N in assay [1], in assay [2] and in assay [3] was 8 throughout.

In turn, “CpsIadA E80Q mutant (from UniProt Q484B6 1-395) (enzyme)” showed a stoichiometry N in assay [4] of 8. In general, Km refers to the concentration of substrate that gives half-maximal velocity. Regarding `CC(C)C[C@H](NC(=O)C[C@H](N)C(=O)O)C(=O)O` [β-Asp-Leu], on CpsIadA [5], the Km is 710 ± 80 µM. `C[C@H](NC(=O)C[C@H](N)C(=O)O)C(=O)O` [β-Asp-Ala]: the Km at CpsIadA [5] was 1200 ± 300 µM. For the compound `N[C@@H](CC(=O)NCC(=O)O)C(=O)O` [β-Asp-Gly], the Km on CpsIadA [5] was found to be 4700 ± 400 µM. With `N[C@@H](CC(=O)N[C@@H](Cc1c[nH]cn1)C(=O)O)C(=O)O` [β-Asp-His], the Km at CpsIadA [5] stood at 5300 ± 500 µM. Turning to `NCCCC[C@H](NC(=O)C[C@H](N)C(=O)O)C(=O)O` [β-Asp-Lys], the “X-ray crystal structure of the complex (2.33 Å)” value on CpsIadA [6] is “β-isoaspartyl lysine bound CpsIadA E80Q mutant have been deposited in the Protein Data Bank”. The Km on CpsIadA [5] came to 1100 ± 90 µM. In the case of `CC(C)C[C@H](NC(=O)[C@@H](N)CC(=O)O)C(=O)O` [α-Asp-Leu] (H-Asp-Leu-OH), at CpsIadA [5], the Km was found to be 6900 ± 400 µM. Regarding `N[C@@H](CC(=O)N[C@@H](Cc1ccccc1)C(=O)O)C(=O)O` [β-Asp-Phe], on CpsIadA [5], the Km stood at 490 ± 90 µM.

Take `C[C@H](NC(=O)CCN)C(=O)O` [β-Ala-Ala]: on CpsIadA [7], the Km amounted to 930 ± 300 µM.
